Measurements taken from patent US7605272B2, “IGF-1R inhibitor” (Kyowa Hakko Kirin Co., Ltd., priority 2005, dated 2009).
Where a name gives a salt, the structure may show the parent alone.

Columns and labels:
NCI-H929 = assay: Cytostatic activity on human multiple myeloma cell line NCI-H929 (WST-1); format: cell-based; conditions: 10 μmol/L, 72 hours; for inhibition at 10 µM: Homo sapiens, NCI-H929, 72 h, read-out: cytostatic rate (%) H929 (10 μmol/L)
Method in brief: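 Cytostatic rate is 100 minus % growth relative to DMSO-only wells (100%) and blank wells (0%), read by WST-1 absorbance at 450/690 nm after 2 h. Compound at 1 or 10 μmol/L final was applied for 72 h at 37 °C to cells seeded 24 h earlier.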

IGF-1R = target: T1, IGF-1R (Homo sapiens, UniProt P08069); assay: IGF-1R inhibitory activity (kinase reaction, time-resolved fluoroimmunoassay); format: biochemical; conditions: IGF-1R active recombinant enzyme, test compound 10 μmol/L
T1 construct: purchased Upstate Co. 14-465
T1 sequence (P08069 959-1367 limits assumed): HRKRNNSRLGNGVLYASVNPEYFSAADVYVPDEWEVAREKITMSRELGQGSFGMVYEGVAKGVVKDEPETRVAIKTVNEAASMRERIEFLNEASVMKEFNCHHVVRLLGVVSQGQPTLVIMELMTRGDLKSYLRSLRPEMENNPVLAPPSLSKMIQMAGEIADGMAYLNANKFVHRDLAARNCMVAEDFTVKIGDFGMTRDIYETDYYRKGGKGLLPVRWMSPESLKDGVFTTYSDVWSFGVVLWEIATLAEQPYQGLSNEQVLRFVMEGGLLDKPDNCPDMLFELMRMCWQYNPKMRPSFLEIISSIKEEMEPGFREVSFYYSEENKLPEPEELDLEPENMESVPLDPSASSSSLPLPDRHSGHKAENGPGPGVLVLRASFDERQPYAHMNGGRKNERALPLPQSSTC
Method in brief: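 Compounds were tested at a single 10 μmol/L concentration. Each was incubated with recombinant IGF-1R (200 μg/L), 10 mmol/L ATP, MgCl2/MnCl2 and Na3VO4 (pH 7.5) on immobilized poly(Glu-Tyr) peptide for 30 min at 24° C. Eu-anti-phosphotyrosine time-resolved fluorescence (340/615 nm) gave relative activity against no-compound and no-enzyme wells, reported as % inhibition.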

KMS-11 = assay: Cytostatic activity on human multiple myeloma cell line KMS-11 (WST-1); format: cell-based; conditions: 10 μmol/L, 72 hours; for inhibition at 10 µM: Homo sapiens, KMS-11, 72 h, read-out: cytostatic rate (%) KMS-11 (10 μmol/L)
Procedure: The cytostatic rates of a test compound on human multiple myeloma cell lines NCI-H929 and KMS-11, were determined in the following manner.
For culturing NCI-H929, Roswell Park Memorial Institute's Medium (RPMI) 1640 (Gibco, Catalog No. 11875-093) containing 15% fetal bovine serum (Gibco, Catalog No. 10099-141), 1 mmol/L sodium pyruvate (Gibco, Catalog No. 11360-070), 10 mmol/L HEPES (Gibco, Catalog No. 15630-80), 4.5 g/L glucose (Sigma, Catalog No. G8769), 0.05 mmol/L 2-mercaptethanol (Nacalai Tesque, Catalog No. 21418-42) and penicillin/streptomycin (1:1) (Gibco, Catalog No. 15140-122) was used. For culturing KMS-11 cell, RPMI 1640 medium containing 10% fetal bovine serum and penicillin/streptomycin (1:1) was used. Each 80 μL of the NCI-H929 cell having a concentration of 1×10^5 cells/mL (or the KMS-11 cell having a concentration of 7.5×10^4 cells/mL) was inoculated to wells of a TC MICROWELL 96U plate (Nalge Nunc International, Catalog No. 163320) and was cultured in a 5% carbon dioxide gas incubator at 37° C. for 24 hours. Each 20 μL of a solution of the test compound in dimethyl sulfoxide (DMSO) which was prepared to make the final concentration to 1 μmol/L or 10 μmol/L, was added to each well. Each 20 μL of DMSO was added to the control well and the blank well to a final concentration of 0.1%. After adding the test compound, the cells were incubated in a 5% carbon dioxide gas incubator at 37° C. for 72 hours except for the blank well. After adding 20 μL of WST-1 reagent {4-[3-(4-iodophenyl)-2-(4-nitrophenyl)-2H-5-tetrazolio]-1,3-benzene disulfonate sodium salt} (Roche Diagnostics K.K., Catalog No. 1644807), which was diluted to 50% by RPMI medium to each well, the cells were further incubated at 37° C. for 2 hours. Then, the absorbances at 450 nm (reference wavelength: 690 nm) were measured with a microplate spectrophotometer SPECTRA max 340PC (Molecular Devices Corporation). The relative growth (%) of a well to which the test compound had been added and cultured for 72 hours was determined while setting the absorbance of a well to which not the test compound but DMSO alone had been added and cultured for 72 hours (control) as 100% and that of a well where the drugs are added (blank) as 0%. The cytostatic rate (%) of the test compound was determined by subtracting the calculated relative growth from 100.

| Compound | inhibitory activity (%) at 10 μmol/L (IGF-1R) [%] | inhibition at 10 µM (IGF-1R) [%] | cytostatic rate (%) H929 (10 μmol/L) (NCI-H929) [%] | cytostatic rate (%) KMS-11 (10 μmol/L) (KMS-11) [%] | inhibition at 10 µM (NCI-H929) [%] | inhibition at 10 µM (KMS-11) [%] |
| --- | --- | --- | --- | --- | --- | --- |
| CCC(O)(CC)C(=O)Nc1ccccc1/C=C/c1n[nH]c2ccccc12 [Compound 45, (E)-2-ethyl-2-hydroxy-N-{2-[2-(1H-indazol-3-yl)vinyl]phenyl}butylamide] | 97.4 |  | 115.0 | 98.3 |  |  |
| O=C(Nc1ccccc1)c1ccccc1/C=C/c1n[nH]c2ccccc12 [Compound 47, (E)-N-phenyl-2-[2-(1H-indazol-3-yl)vinyl]benzamide] |  | 90.1 |  |  | 100 | 92.1 |
| Nc1ccn(C(=O)c2ccccc2/C=C/c2n[nH]c3ccccc23)n1 [Compound 48, (E)-3-amino-1-{2-[2-(1H-indazol-3-yl)vinyl]benzoyl}pyrazole] |  | 99.3 |  |  | 111 | 90.1 |
| Cn1cc([N+](=O)[O-])cc1C(=O)Nc1ccccc1/C=C/c1n[nH]c2ccccc12 [Compound 52, (E)-N-{2-[2-(1H-indazol-3-yl)vinyl]phenyl}-1-methyl-4-nitro-1H-pyrrole-2-carboxamide] |  | 98.5 |  |  | 119 | 128 |
| COc1cscc1C(=O)Nc1ccccc1/C=C/c1n[nH]c2ccccc12 [Compound 53, (E)-N-{2-[2-(1H-indazol-3-yl)vinyl]phenyl}-4-methoxythiophene-3-carboxamide] |  | 98.9 |  |  | 114 | 126 |
| O=C(Nc1ccccc1/C=C/c1n[nH]c2ccccc12)c1sccc1Cl [Compound 54, (E)-3-chloro-N-{2-[2-(1H-indazol-3-yl)vinyl]phenyl}thiophene-2-carboxamide] |  | 96.7 |  |  | 118 | 126 |
| Cn1c(C(=O)Nc2ccccc2/C=C/c2n[nH]c3ccccc23)cc2ccccc21 [Compound 55, (E)-N-{2-[2-(1H-indazol-3-yl)vinyl]phenyl}-1-methyl-1H-indole-2-carboxamide] |  | 98.9 |  |  | 115 | 132 |
| Nc1ccc(C(=O)Nc2ccccc2/C=C/c2n[nH]c3ccccc23)s1 [Compound 56, (E)-5-amino-N-{2-[2-(1H-indazol-3-yl)vinyl]phenyl}thiophene-2-carboxamide] |  | 99.3 |  |  | 116 | 134 |
| O=C(Nc1ccccc1/C=C/c1n[nH]c2ccccc12)c1cc2sccc2s1 [Compound 57, (E)-N-{2-[2-(1H-indazol-3-yl)vinyl]phenyl}thieno[3,2-b]thiophene-2-carboxamide] |  | 98.3 |  |  | 117 | 141 |
| Cc1c(C(=O)Nc2ccccc2/C=C/c2n[nH]c3ccccc23)sc2ccc(Cl)cc12 [Compound 58, (E)-5-chloro-N-{2-[2-(1H-indazol-3-yl)vinyl]phenyl}-3-methylbenzo[b]thiophene-2-carboxamide] |  | 86 |  |  | 69.8 | 119 |
| Cc1cc(C(=O)Nc2ccccc2/C=C/c2n[nH]c3ccccc23)c(C(F)(F)F)o1 [Compound 59, (E)-N-{2-[2-(1H-indazol-3-yl)vinyl]phenyl}-5-methyl-2-trifluoromethylfuran-3-carboxamide] |  | 86.3 |  |  | 110 | 106 |

Further lines, with some results ahead:

| inhibitory activity (%) at 10 μmol/L (IGF-1R) [%] | inhibition at 10 µM (IGF-1R) [%] | Compound | cytostatic rate (%) H929 (10 μmol/L) (NCI-H929) [%] | cytostatic rate (%) KMS-11 (10 μmol/L) (KMS-11) [%] | inhibition at 10 µM (NCI-H929) [%] | inhibition at 10 µM (KMS-11) [%] |
| --- | --- | --- | --- | --- | --- | --- |
|  | 77.4 | O=S(=O)(Nc1ccccc1/C=C/c1n[nH]c2ccccc12)c1cccs1 [Compound 60, (E)-N-{2-[2-(1H-indazol-3-yl)vinyl]phenyl}thiophene-2-sulfonamide] |  |  | 63.9 | 103 |
|  | 99.2 | O=C(Nc1ccccc1/C=C/c1n[nH]c2ccccc12)c1ccc([N+](=O)[O-])o1 [Compound 63, (E)-N-{2-[2-(1H-indazol-3-yl)vinyl]phenyl}-5-nitrofuran-2-carboxamide] |  |  | 109 | 125 |
|  | 97 | O=C(Nc1ccccc1/C=C/c1n[nH]c2ccccc12)c1cccc([N+](=O)[O-])c1 [Compound 64, (E)-N-{2-[2-(1H-indazol-3-yl)vinyl]phenyl}-3-nitrobenzamide] |  |  | 108 | 124 |
|  | 97.9 | O=C(Nc1ccccc1/C=C/c1n[nH]c2ccccc12)c1ccc([N+](=O)[O-])cc1 [Compound 65, (E)-N-{2-[2-(1H-indazol-3-yl)vinyl]phenyl}-4-nitrobenzamide] |  |  | 109 | 120 |
|  | 93.6 | Cc1cc([N+](=O)[O-])sc1C(=O)Nc1ccccc1/C=C/c1n[nH]c2ccccc12 [Compound 66, (E)-N-{2-[2-(1H-indazol-3-yl)vinyl]phenyl}-3-methyl-5-nitrothiophene-2-carboxamide] |  |  | 111 | 114 |
|  | 95.6 | Cc1cc(N)sc1C(=O)Nc1ccccc1/C=C/c1n[nH]c2ccccc12 [Compound 67, (E)-5-amino-N-{2-[2-(1H-indazol-3-yl)vinyl]phenyl}-3-methylthiophene-2-carboxamide] |  |  | 119 | 100 |
|  | 97.4 | CC(=O)Nc1ccc(C(=O)Nc2ccccc2/C=C/c2n[nH]c3ccccc23)s1 [Compound 68, (E)-5-acetylamino-N-{2-[2-(1H-indazol-3-yl)vinyl]phenyl}thiophene-2-carboxamide] |  |  | 114 | 112 |
|  | 101 | Nc1cccc(C(=O)Nc2ccccc2/C=C/c2n[nH]c3ccccc23)c1 [Compound 69, (E)-3-amino-N-{2-[2-(1H-indazol-3-yl)vinyl]phenyl}benzamide] |  |  | 116 | 114 |
|  | 101 | Nc1ccc(C(=O)Nc2ccccc2/C=C/c2n[nH]c3ccccc23)cc1 [Compound 70, (E)-4-amino-N-{2-[2-(1H-indazol-3-yl)vinyl]phenyl}benzamide] |  |  | 115 | 113 |
|  | 99.4 | Cc1nnsc1C(=O)Nc1ccccc1/C=C/c1n[nH]c2ccccc12 [Compound 71, (E)-N-{2-[2-(1H-indazol-3-yl)vinyl]phenyl}-4-methyl-[1,2,3]thiadiazole-5-carboxamide] |  |  | 115 | 114 |
|  | 88 | Cn1cccc1CC(=O)Nc1ccccc1/C=C/c1n[nH]c2ccccc12 [Compound 73, (E)-N-{2-[2-(1H-indazol-3-yl)vinyl]phenyl}-2-(1-methyl-1H-pyrrole-2-yl)acetamide] |  |  | 80 | 90.4 |
|  | 99.2 | Cn1cc(N)cc1C(=O)Nc1ccccc1/C=C/c1n[nH]c2ccccc12 [Compound 76, (E)-4-amino-N-{2-[2-(1H-indazol-3-yl)vinyl]phenyl}-1-methyl-1H-pyrrole-2-carboxamide trifluoroacetate] |  |  | 109 | 126 |
|  | 101 | O=C(Nc1ccccc1/C=C/c1n[nH]c2ccccc12)c1ccc(O)cc1 [Compound 77, (E)-4-hydroxy-N-{2-[2-(1H-indazol-3-yl)vinyl]phenyl}benzamide] |  |  | 111 | 126 |
